Data: US12509453B2, “BRM/BRG1 inhibitors and uses thereof” (Foghorn Therapeutics Inc., priority 2019, dated 2025)

Key:
BRG-1 = biological target: T1, BRG-1 (Homo sapiens, UniProt P51532); test: ATPase catalytic activity assay (ADP-Glo), BRG-1; assay type: biochemical; conditions: 30 nM BRG-1, 400 μM ATP; for IC50: 20 nM salmon sperm DNA, read-out: BRG1 IP50 (μM)*; for Emax: read-out: BRG1 Max % Inhibition
T1 construct: made in house; host or cells: High Five insect cells
Protocol: (§1) The ATPase catalytic activity of BRM or BRG-1 was measured by the in vitro biochemical assay using ADP-Glo™ (Promega, V9102). The ADP-Glo™ kinase assay is performed in two steps once the reaction is complete. The first step is to deplete any unconsumed ATP in the reaction. The second step is to convert the reaction product ADP to ATP, which will be utilized by the luciferase to generate luminesce and be detected by a luminescence reader, such as Envision.
(§2) The assay reaction mixture (10 μL) contains 30 nM of BRM or BRG-1, 20 nM salmon sperm DNA (from Invitrogen, UltraPure™ Salmon Sperm DNA Solution, cat #15632011), and 400 μM of ATP in the ATPase assay buffer, which comprises of 20 mM Tris, pH 8, 20 mM MgCl2, 50 mM NaCl, 0.1% Tween-20, and 1 mM fresh DTT (Pierce™ DTT (Dithiothreitol), cat #20290). The reaction is initiated by the addition of the 2.5 μL ATPase solution to 2.5 μL ATP/DNA solution on low volume white Proxiplate-384 plus plate (PerkinElmer,cat #6008280) and incubates at room temperature for 1 hour. Then following addition of 5 μL of ADP-Glo™ Reagent provided in the kit, the reaction incubates at room temperature for 40 minutes. Then 10 μL of Kinase Detection Reagent provided in the kit is added to convert ADP to ATP, and the reaction incubates at room temperature for 60 minutes. Finally, luminescence measurement is collected with a plate-reading luminometer, such as Envision.
as §1, with “The” for “The ATPase catalytic activity of BRM or BRG-1 was measured by the in vitro biochemical assay using ADP-Glo™ (Promega, V9102). The”
as §2, with “BRG1,” for “BRG-1,”

BRM = biological target: T2, BRM (Homo sapiens, UniProt P51531); test: ATPase catalytic activity assay (ADP-Glo), BRM; assay type: biochemical; conditions: 30 nM BRM, 400 μM ATP; for IC50: 20 nM salmon sperm DNA, read-out: BRM IP50 (μM)*
T2 construct: made in house; host or cells: High Five insect cells
T2 sequence (P51531 whole entry): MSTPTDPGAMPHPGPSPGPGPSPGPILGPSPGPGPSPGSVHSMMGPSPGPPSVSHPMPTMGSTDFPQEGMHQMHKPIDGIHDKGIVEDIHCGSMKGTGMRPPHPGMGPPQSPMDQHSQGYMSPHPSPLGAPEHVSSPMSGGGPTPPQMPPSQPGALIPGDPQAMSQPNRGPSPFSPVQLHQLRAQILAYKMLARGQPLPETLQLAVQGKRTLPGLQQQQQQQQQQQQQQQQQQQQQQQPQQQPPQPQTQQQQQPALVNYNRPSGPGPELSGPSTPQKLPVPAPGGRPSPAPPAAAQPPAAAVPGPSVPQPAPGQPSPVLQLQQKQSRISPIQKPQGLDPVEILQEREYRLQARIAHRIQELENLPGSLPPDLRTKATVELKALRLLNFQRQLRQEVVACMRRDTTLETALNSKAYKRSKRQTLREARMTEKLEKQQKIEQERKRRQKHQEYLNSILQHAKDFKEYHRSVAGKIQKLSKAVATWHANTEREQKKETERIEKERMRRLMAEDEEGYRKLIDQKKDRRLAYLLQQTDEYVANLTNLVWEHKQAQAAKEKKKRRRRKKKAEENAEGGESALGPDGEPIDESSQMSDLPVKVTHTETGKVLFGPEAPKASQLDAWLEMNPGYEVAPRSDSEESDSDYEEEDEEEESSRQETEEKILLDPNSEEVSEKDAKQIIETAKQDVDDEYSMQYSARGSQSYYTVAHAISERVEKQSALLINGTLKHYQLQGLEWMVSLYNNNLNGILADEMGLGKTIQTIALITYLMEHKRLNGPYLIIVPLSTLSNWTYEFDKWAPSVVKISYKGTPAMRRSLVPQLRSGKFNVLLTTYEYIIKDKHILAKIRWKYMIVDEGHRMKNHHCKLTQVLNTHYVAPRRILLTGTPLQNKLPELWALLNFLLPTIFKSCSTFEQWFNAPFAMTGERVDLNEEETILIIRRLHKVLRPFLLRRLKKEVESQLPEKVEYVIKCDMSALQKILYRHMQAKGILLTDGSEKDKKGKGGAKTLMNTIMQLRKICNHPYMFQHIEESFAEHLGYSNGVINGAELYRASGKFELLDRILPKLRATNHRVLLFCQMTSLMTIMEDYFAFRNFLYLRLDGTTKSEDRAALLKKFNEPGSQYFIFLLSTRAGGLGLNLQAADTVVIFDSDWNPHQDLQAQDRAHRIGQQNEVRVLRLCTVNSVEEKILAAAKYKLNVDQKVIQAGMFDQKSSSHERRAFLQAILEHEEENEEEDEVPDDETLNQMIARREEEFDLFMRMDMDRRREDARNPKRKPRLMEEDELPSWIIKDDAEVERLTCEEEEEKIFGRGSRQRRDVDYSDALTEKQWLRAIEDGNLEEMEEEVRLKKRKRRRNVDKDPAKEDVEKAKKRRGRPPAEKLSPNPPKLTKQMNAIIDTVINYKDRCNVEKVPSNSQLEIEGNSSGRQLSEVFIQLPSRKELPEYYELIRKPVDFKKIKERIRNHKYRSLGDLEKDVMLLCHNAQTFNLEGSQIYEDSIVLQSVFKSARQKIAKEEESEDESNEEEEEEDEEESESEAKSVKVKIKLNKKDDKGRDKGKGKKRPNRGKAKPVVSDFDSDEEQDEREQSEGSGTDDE
Protocol: as §1, §2
as §1, with “The” for “The ATPase catalytic activity of BRM or BRG-1 was measured by the in vitro biochemical assay using ADP-Glo™ (Promega, V9102). The”
as §2, with “BRG1,” for “BRG-1,”

T1 sequence (P51532 whole entry): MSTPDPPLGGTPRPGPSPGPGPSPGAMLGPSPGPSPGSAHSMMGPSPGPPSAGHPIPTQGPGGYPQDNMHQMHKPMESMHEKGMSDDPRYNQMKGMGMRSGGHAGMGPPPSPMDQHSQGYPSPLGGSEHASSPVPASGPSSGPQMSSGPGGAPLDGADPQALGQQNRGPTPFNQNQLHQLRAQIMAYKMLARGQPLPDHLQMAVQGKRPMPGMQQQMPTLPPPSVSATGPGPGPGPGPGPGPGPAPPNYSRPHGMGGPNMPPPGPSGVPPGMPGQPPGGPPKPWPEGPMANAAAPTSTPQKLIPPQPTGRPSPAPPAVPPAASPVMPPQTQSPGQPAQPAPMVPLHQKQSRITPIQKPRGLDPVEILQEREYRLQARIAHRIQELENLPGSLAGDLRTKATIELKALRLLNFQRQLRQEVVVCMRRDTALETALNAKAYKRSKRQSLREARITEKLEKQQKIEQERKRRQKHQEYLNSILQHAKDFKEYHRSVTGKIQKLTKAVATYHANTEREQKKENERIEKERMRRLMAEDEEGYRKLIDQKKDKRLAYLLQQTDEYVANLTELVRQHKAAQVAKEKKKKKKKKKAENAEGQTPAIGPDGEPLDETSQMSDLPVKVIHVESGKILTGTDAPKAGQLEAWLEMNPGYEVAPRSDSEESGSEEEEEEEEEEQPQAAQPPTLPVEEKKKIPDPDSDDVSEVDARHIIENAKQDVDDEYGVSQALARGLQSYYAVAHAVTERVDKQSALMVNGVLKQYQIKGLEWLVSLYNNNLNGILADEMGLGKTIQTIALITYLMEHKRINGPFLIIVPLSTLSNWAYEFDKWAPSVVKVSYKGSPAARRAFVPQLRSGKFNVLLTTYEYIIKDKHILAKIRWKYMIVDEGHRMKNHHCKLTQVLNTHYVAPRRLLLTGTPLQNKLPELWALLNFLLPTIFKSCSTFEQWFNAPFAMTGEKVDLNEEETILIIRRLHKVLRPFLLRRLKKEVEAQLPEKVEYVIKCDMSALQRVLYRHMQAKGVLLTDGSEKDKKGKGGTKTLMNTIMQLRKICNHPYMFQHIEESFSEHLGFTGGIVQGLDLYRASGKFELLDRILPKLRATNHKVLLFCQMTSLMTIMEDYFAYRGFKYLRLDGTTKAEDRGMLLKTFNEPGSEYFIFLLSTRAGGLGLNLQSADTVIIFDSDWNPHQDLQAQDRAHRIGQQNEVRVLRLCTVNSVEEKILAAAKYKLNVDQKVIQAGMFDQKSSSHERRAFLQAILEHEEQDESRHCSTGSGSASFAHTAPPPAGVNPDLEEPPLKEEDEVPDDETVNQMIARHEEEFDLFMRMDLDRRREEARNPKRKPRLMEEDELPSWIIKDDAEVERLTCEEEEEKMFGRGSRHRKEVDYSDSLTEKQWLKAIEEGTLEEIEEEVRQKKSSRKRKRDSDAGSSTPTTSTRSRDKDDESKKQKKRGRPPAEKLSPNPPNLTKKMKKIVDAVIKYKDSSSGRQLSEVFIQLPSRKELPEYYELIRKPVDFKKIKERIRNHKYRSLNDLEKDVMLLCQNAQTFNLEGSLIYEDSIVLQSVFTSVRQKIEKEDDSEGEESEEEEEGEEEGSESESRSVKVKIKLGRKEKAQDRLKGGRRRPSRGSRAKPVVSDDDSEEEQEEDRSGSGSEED

SMILES | IC50 (BRG-1) [µM] | Emax (BRG-1) [%] | BRM Max % Inhibition (BRM) [%] | IC50 (BRM) [µM]
Cc1cc(-c2cccc(-c3csc(NC(=O)CNC(=O)c4cc(C)n(S(=O)(=O)C(C)C)c4)n3)c2)cc(C)n1 [Compound 7, N-(2-((4-(3-(2,6-dimethylpyridin-4-yl)phenyl)thiazol-2-yl)amino)-2-oxoethyl)-1-(isopropylsulfonyl)-5-methyl-1H-pyrrole-3-carboxamide] | 0.1 to 1 | > 95 | >95 | < 0.1
C[C@@H]1CN(c2cccc(-c3csc(NC(=O)CNC(=O)c4cn(S(C)(=O)=O)c5ccccc45)n3)c2)C[C@H](C)O1 [Compound 26, N-(2-((4-(3-((cis)-2,6-dimethylmorpholino)phenyl)thiazol-2-yl)amino)-2-oxoethyl)-1-(methylsulfonyl)-1H-indole-3-carboxamide] | 1 to 5 | > 60 | >90 | 0.1 to 1
C[C@@H]1CN(c2cccc(-c3csc(NC(=O)CNC(=O)c4cnn(C(C)(C)C)c4Cl)n3)c2)C[C@H](C)O1 [Compound 43, 1-(tert-butyl)-5-chloro-N-(2-((4-(3-((2R,6S)-2,6-dimethylmorpholino)phenyl)thiazol-2-yl)amino)-2-oxoethyl)-1H-pyrazole-4-carboxamide] | 0.1 to 1 |  |  | < 0.1
Cc1cc(C(=O)NCC(=O)Nc2nc(-c3cccc(N4C[C@@H](C)O[C@@H](C)C4)n3)cs2)cn1S(=O)(=O)C(C)C [Compound 38, N-(2-((4-(6-((cis)-2,6-dimethylmorpholino)pyridin-2-yl)thiazol-2-yl)amino)-2-oxoethyl)-1-(isopropylsulfonyl)-5-methyl-1H-pyrrole-3-carboxamide] | 1 to 5 | > 70 | >95 | 0.1 to 1
Cc1nccc(-c2cccc(-c3csc(NC(=O)CNC(=O)c4cc(Cl)n(S(=O)(=O)C(C)C)c4)n3)n2)n1 [Compound 24, 5-chloro-1-(isopropylsulfonyl)-N-(2-((4-(6-(2-methylpyrimidin-4-yl)pyridin-2-yl)thiazol-2-yl)amino)-2-oxoethyl)-1H-pyrrole-3-carboxamide] | > 5 | < 30 | >60 | 0.1 to 1
Cc1cn(S(C)(=O)=O)cc1C(=O)NCC(=O)Nc1nc(-c2cccc(-c3ccncc3)c2)cs1 [Compound 9, 4-methyl-1-(methylsulfonyl)-N-(2-oxo-2-((4-(3-(pyridin-4-yl)phenyl)thiazol-2-yl)amino)ethyl)-1H-pyrrole-3-carboxamide] | < 0.1 | > 60 | >80 | < 0.1
CC(C)S(=O)(=O)n1cc(C(=O)NCC(=O)Nc2nc(-c3cccc(N4C[C@@H](C)O[C@@H](C)C4)c3)cs2)c2ccccc21 [Compound 31, N-(2-((4-(3-((cis)-2,6-dimethylmorpholino)phenyl)thiazol-2-yl)amino)-2-oxoethyl)-1-(isopropylsulfonyl)-1H-indole-3-carboxamide] | > 5 | < 30 | >80 | 0.1 to 1
Cc1cc(-c2cccc(-c3csc(NC(=O)CNC(=O)c4cn(S(=O)(=O)C(C)C)c(C)c4C)n3)c2)cc(C)n1 [Compound 12, N-(2-((4-(3-(2,6-dimethylpyridin-4-yl)phenyl)thiazol-2-yl)amino)-2-oxoethyl)-1-(isopropylsulfonyl)-4,5-dimethyl-1H-pyrrole-3-carboxamide] | 0.1 to 1 | > 80 | >95 | < 0.1
CS(=O)(=O)n1cc(C(=O)NCC(=O)Nc2nc(-c3cccc(-c4ccncc4)c3)cs2)c2ccncc21 [Compound 2, 1-(methylsulfonyl)-N-(2-oxo-2-((4-(3-(pyridin-4-yl)phenyl)thiazol-2-yl)amino)ethyl)-1H-pyrrolo[2,3-c]pyridine-3-carboxamide] | 1 to 5 | > 70 | >80 | 0.1 to 1
Cc1c(C(=O)NCC(=O)Nc2nc(-c3cccc(-c4ccncc4)c3)cs2)cn(S(C)(=O)=O)c1C [Compound 11, 4,5-dimethyl-1-(methylsulfonyl)-N-(2-oxo-2-((4-(3-(pyridin-4-yl)phenyl)thiazol-2-yl)amino)ethyl)-1H-pyrrole-3-carboxamide] | < 0.1 | > 80 | >95 | < 0.1
C[C@@H]1CN(c2cccc(-c3csc(NC(=O)CNC(=O)c4cc(Cl)n(S(C)(=O)=O)c4)n3)c2)C[C@H](C)O1 [Compound 44, 5-chloro-N-(2-((4-(3-((2R,6S)-2,6-dimethylmorpholino)phenyl)thiazol-2-yl)amino)-2-oxoethyl)-1-(methylsulfonyl)-1H-pyrrole-carboxamide] | < 0.1 |  |  | < 0.1
Cc1nccc(-c2cccc(-c3csc(NC(=O)CNC(=O)c4cn(S(C)(=O)=O)c5ccccc45)n3)n2)n1 [Compound 22, N-(2-((4-(6-(2-methylpyrimidin-4-yl)pyridin-2-yl)thiazol-2-yl)amino)-2-oxoethyl)-1-(methylsulfonyl)-1H-indole-3-carboxamide] | 1 to 5 | > 40 | >80 | 0.1 to 1
CC(C)S(=O)(=O)n1cc(C(=O)NCC(=O)Nc2nc(-c3cccc(N4CCC(O)CC4)c3)cs2)cc1Cl [Compound 40, 5-chloro-N-(2-((4-(3-(4-hydroxypiperidin-1-yl)phenyl)thiazol-2-yl)amino)-2-oxoethyl)-1-(isopropylsulfonyl)-1H-pyrrole-3-carboxamide] | 1 to 5 | > 50 | >80 | 0.1 to 1
Cc1cc(-c2cccc(-c3csc(NC(=O)CNC(=O)c4cc(Cl)n(S(=O)(=O)C(C)C)c4)n3)n2)ncn1 [Compound 27, 5-chloro-1-(isopropylsulfonyl)-N-(2-((4-(6-(6-methylpyrimidin-4-yl)pyridin-2-yl)thiazol-2-yl)amino)-2-oxoethyl)-1H-pyrrole-3-carboxamide] | 0.1 to 1 | > 60 | >80 | 0.1 to 1
CNC(=O)CN(C)c1cc(-c2cccc(-c3csc(NC(=O)CNC(=O)c4cc(C)n(S(C)(=O)=O)c4)n3)c2)ccn1 [Compound 46, 5-methyl-N-(2-((4-(3-(2-(methyl(2-(methylamino)-2-oxoethyl)amino)pyridin-4-yl)phenyl)thiazol-2-yl)amino)-2-oxoethyl)-1-(methylsulfonyl)-1H-pyrrole-3-carboxamide] | < 0.1 |  |  | < 0.1
CS(=O)(=O)n1cc(C(=O)NCC(=O)Nc2nc(-c3cccc(-c4ccncc4)c3)cs2)c2ccccc21 [Compound 1, 1-(methylsulfonyl)-N-(2-oxo-2-((4-(3-(pyridin-4-yl)phenyl)thiazol-2-yl)amino)ethyl)-1H-indole-3-carboxamide] | > 5 | < 30 | >70 | 0.1 to 1
Cc1cc(C(=O)NCC(=O)Nc2nc(-c3cccc(-c4ccn(C)n4)c3)cs2)cn1S(=O)(=O)C(C)C [Compound 6, 1-(isopropylsulfonyl)-5-methyl-N-(2-((4-(3-(1-methyl-1H-pyrazol-3-yl)phenyl)thiazol-2-yl)amino)-2-oxoethyl)-1H-pyrrole-3-carboxamide] | 1 to 5 | > 50 | >90 | 0.1 to 1
